Key:
Assay in all cases: relative viability (nuclei count vs DMSO), 5 days (fraction); higher = more cells survive
Doramapimod + Tozasertib = compound: Cc1ccc(-n2nc(C(C)(C)C)cc2NC(=O)Nc2ccc(OCCN3CCOCC3)c3ccccc23)cc1 [Doramapimod] + Cc1cc(Nc2cc(N3CCN(C)CC3)nc(Sc3ccc(NC(=O)C4CC4)cc3)n2)n[nH]1 [Tozasertib] (partner 0.1 µM)
In short: (§1)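 Values are medians from duplicate plates. Each reflects relative viability, defined as the nuclei count of treated wells over that of vehicle wells. Lung cancer cell lines in 1536-well plates were pin-tool dosed one day after seeding with one drug alone or with a fixed anchor-drug dose plus five library-drug doses (not always all listed) in √10 steps, then fixed, stained and imaged at 4× after 5 days.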

Doramapimod + Bortezomib = compound: Cc1ccc(-n2nc(C(C)(C)C)cc2NC(=O)Nc2ccc(OCCN3CCOCC3)c3ccccc23)cc1 [Doramapimod] + CC(C)C[C@H](NC(=O)[C@H](Cc1ccccc1)NC(=O)c1cnccn1)B(O)O [Bortezomib] (partner 0.002 µM)
In short: as §1

RAF265 + Navitoclax = compound: Cn1c(Nc2ccc(C(F)(F)F)cc2)nc2cc(Oc3ccnc(-c4ncc(C(F)(F)F)[nH]4)c3)ccc21 [RAF265] + CC1(C)CCC(c2ccc(Cl)cc2)=C(CN2CCN(c3ccc(C(=O)NS(=O)(=O)c4ccc(N[C@H](CCN5CCOCC5)CSc5ccccc5)c(S(=O)(=O)C(F)(F)F)c4)cc3)CC2)C1 [Navitoclax] (partner 0.5 µM)
In short: as §1

RAF265 + Pemetrexed = compound: Cn1c(Nc2ccc(C(F)(F)F)cc2)nc2cc(Oc3ccnc(-c4ncc(C(F)(F)F)[nH]4)c3)ccc21 [RAF265] + Nc1nc2[nH]cc(CCc3ccc(C(=O)N[C@@H](CCC(=O)O)C(=O)O)cc3)c2c(=O)[nH]1 [Pemetrexed] (partner 0.2 µM)
In short: as §1

Row | Cell Line | relative viability (Doramapimod + Tozasertib; first compound 0.02 µM) | relative viability (Doramapimod + Tozasertib; first compound 0.06325 µM) | relative viability (Doramapimod + Tozasertib; first compound 0.2 µM) | relative viability (Doramapimod + Tozasertib; first compound 0.6325 µM) | relative viability (Doramapimod + Tozasertib; first compound 2 µM) | relative viability (Doramapimod + Bortezomib; first compound 0.02 µM) | relative viability (Doramapimod + Bortezomib; first compound 0.06325 µM) | relative viability (Doramapimod + Bortezomib; first compound 0.2 µM) | relative viability (Doramapimod + Bortezomib; first compound 0.6325 µM) | relative viability (Doramapimod + Bortezomib; first compound 2 µM) | relative viability (RAF265 + Navitoclax; first compound 0.01 µM) | relative viability (RAF265 + Navitoclax; first compound 0.03162 µM) | relative viability (RAF265 + Navitoclax; first compound 0.1 µM) | relative viability (RAF265 + Navitoclax; first compound 0.3162 µM) | relative viability (RAF265 + Navitoclax; first compound 1 µM) | relative viability (RAF265 + Pemetrexed; first compound 0.01 µM) | relative viability (RAF265 + Pemetrexed; first compound 0.03162 µM) | relative viability (RAF265 + Pemetrexed; first compound 0.1 µM) | relative viability (RAF265 + Pemetrexed; first compound 0.3162 µM) | relative viability (RAF265 + Pemetrexed; first compound 1 µM)
1 | EMC-BAC-2 | 0.284 | 0.286 | 0.272 | 0.304 | 0.238 | 1.12 | 1.12 | 1.03 | 1.15 | 0.961 | 1.11 | 1.06 | 1.05 | 0.941 | 0.612 | 0.432 | 0.406 | 0.427 | 0.347 | 0.258
2 | NCI-H520 | 0.483 | 0.441 | 0.402 | 0.42 | 0.382 | 0.671 | 0.699 | 0.529 | 0.677 | 0.364 | 1.04 | 0.888 | 1.07 | 0.848 | 0.706 | 0.637 | 0.536 | 0.629 | 0.507 | 0.36
3 | NCI-H1755 | 0.581 | 0.58 | 0.597 | 0.611 | 0.469 | 1.03 | 1 | 0.793 | 0.897 | 0.831 | 0.999 | 0.879 | 0.764 | 0.671 | 0.356 | 0.771 | 0.361 | 0.503 | 0.519 | 0.497
4 | NCI-H1993 | 0.688 | 0.564 | 0.622 | 0.598 | 0.565 | 1.3 | 0.993 | 1.03 | 1.53 | 0.97 | 1.1 | 0.947 | 1.08 | 0.719 | 0.783 | 0.548 | 0.605 | 0.508 | 0.51 | 0.581
5 | NCI-H23 | 0.622 | 0.34 | 0.366 | 0.433 | 0.326 | 1.01 | 1.07 | 1.06 | 1.11 | 1.04 | 0.886 | 0.825 | 0.775 | 0.553 | 0.317 | 0.633 | 0.573 | 0.53 | 0.351 | 0.366
6 | NCI-H1437 | 0.416 | 0.431 | 0.394 | 0.404 | 0.401 | 0.586 | 0.643 | 0.551 | 0.464 | 0.495 | 1.1 | 1.06 | 1.01 | 1.18 | 1.1 | 0.346 | 0.296 | 0.326 | 0.285 | 0.278
7 | NCI-H2405 | 0.774 | 0.703 | 0.675 | 0.869 | 0.635 | 0.98 | 1.03 | 0.984 | 0.712 | 0.961 | 0.984 | 0.86 | 0.973 | 0.909 | 0.335 | 1.14 | 0.922 | 0.91 | 0.662 | 0.516
8 | NCI-H2023 | 0.333 | 0.352 | 0.3 | 0.304 | 0.247 | 1 | 0.945 | 0.978 | 0.44 | 0.97 | 1.09 | 1.02 | 1.06 | 1.09 | 0.908 | 0.21 | 0.251 | 0.21 | 0.251 | 0.236
9 | NCI-H838 | 0.299 | 0.27 | 0.285 | 0.253 | 0.257 | 1.05 | 0.965 | 1.01 | 1.22 | 0.73 | 1.23 | 1.14 | 1.15 | 1.1 | 1.01 | 0.269 | 0.269 | 0.265 | 0.299 | 0.237
10 | NCI-H1734 | 0.273 | 0.267 | 0.229 | 0.284 | 0.235 | 0.845 | 0.859 | 0.766 | 0.966 | 0.724 | 0.886 | 0.656 | 0.825 | 0.628 | 0.348 | 0.386 | 0.43 | 0.469 | 0.507 | 0.417
11 | NCI-H1650 | 0.416 | 0.408 | 0.395 | 0.382 | 0.357 | 0.232 | 0.23 | 0.194 | 0.191 | 0.189 | 1.17 | 1.18 | 1.53 | 1.19 | 1.22 | 0.336 | 0.362 | 0.431 | 0.324 | 0.369
12 | NCI-H596 | 0.939 | 0.862 | 1.11 | 0.982 | 0.883 | 0.994 | 1.13 | 1.21 | 1.24 | 1.02 | 1.02 | 0.862 | 1.03 | 1.06 | 0.576 | 0.565 | 0.504 | 0.474 | 0.538 | 0.448
13 | HCC-15 | 0.401 | 0.343 | 0.414 |  | 0.309 | 1.02 | 1.05 | 1.04 | 0.801 | 0.907 | 0.734 | 0.709 | 0.7 | 0.505 | 0.464 | 0.232 | 0.232 | 0.231 | 0.235 | 0.23
14 | HOP-62 | 0.386 | 0.356 | 0.382 | 0.424 | 0.28 | 0.594 | 0.97 | 1.15 | 0.468 | 0.703 | 0.942 | 0.963 | 0.921 | 0.995 | 0.951 | 0.261 | 0.306 | 0.267 | 0.246 | 0.245
15 | NCI-H3122 | 0.439 | 0.408 | 0.448 | 0.431 | 0.365 | 1.04 | 0.983 | 0.949 | 1.07 | 0.91 | 1 | 1.08 | 1.01 | 1.04 | 0.967 | 0.197 | 0.21 | 0.198 | 0.209 | 0.195

Reference: the supplement of paper PMC10307832
